Experimental data taken from patent EP1350523B1 (priority 1992, dated 1994).

Test system: vascular smooth muscle cells
Test: 24 hour 3H-thymidine DNA synthesis inhibition assay compared with 24 hour 3H-leucine protein inhibition assay
Assay type: cell-based
Conditions: for therapeutic range (area under the curve of 3H-leucine assay greater than that of 3H-thymidine assay): 24 hour exposure, 5% FBS; for protein synthesis inhibition and cytotoxicity at concentrations where significant DNA synthesis inhibition occurs: Example 8, Figs. 10A-10C
Description: The ability of various therapeutic agents to inhibit DNA synthesis and protein synthesis in vascular smooth muscle cells was tested. ^3H-leucine and ^3H-thymidine uptake and cytotoxicity assays were conducted in accordance with the following protocols.
3H-leucine uptake: Vascular smooth muscle cells at 40,000 cells/ml were seeded in sterile 24 well plates at 1ml/well. The plates were incubated overnight at 37°C, 5% CO2, 95% air in a humidified atmosphere (saturation). Log dilutions of the therapeutic agent of interest were incubated with the vascular smooth muscle cells for 5 minutes or 24 hours. Samples of the therapeutic agents were diluted in DMEM: F-12 media (Whittaker Bioproducts, Walkersville, Maryland) with 5% fetal bovine serum (GBS. Gibco) and 5% Serum Plus® (JRH Biologicals). Following therapeutic agent incubation, the solution was aspirated, and 1ml/well of 0.5 microcurie/ml ^3H-leucine in leucine free DMEM (Dulbecco's Modified Eagle's Medium) with 5% Serum Plus® was added. The plates were re-incubated overnight at 37°C, 5% CO2 in a humidified atmosphere. The cells were visually graded using an inverted microscope using a scoring scale to determine viability and cell number. The 1 to 3 grade is based upon percent of cell viability and number compared to control wells, with 3=100%, 2=70%-100% and 1=0%-70%. A record of this scoring assisted in determining the immediate cytotoxic effect of the therapeutic agents. The media was then aspirated, and the cells were washed twice with cold 5% TCA. 400 microliters of 0.2M NaOH was added per well, and the plates were incubated for two hours at room temperature on a rotating platform. 200 microliters per well of the cell solution was transferred into plastic scintillation vials (Bio-Rad Laboratories), and 4 milliliters of Bio-Safe® II liquid scintillation fluid was added prior to vortexing. Vials were counted on a Beckman LS2800 Liquid Scintillation Counter interfaced with Beckman "Data Capture" software for conversion to a Lotus 1-2-3® file and analysis using Lotus 1-2-3®.
^3H-thymidine uptake: Vascular smooth muscle cells were incubated in complete media with 5% FBS (Gibco) overnight at 37°C in a humidified, 5% CO2 environment in sterile 24 well plates. The media was aspirated from the wells and serum free media supplemented with growth factors (DMEM: F-12 basal media supplemented with growth factor cocktail catalog number I1884 which contains insulin (5 micrograms/ml), transferrin (5 micrograms/ml) and sodium selenite (5 nanograms/ml) available from Sigma Chemical, St. Louis, Missouri) was added. Cells were incubated in this media for 24 hours. For a 5 minute therapeutic agent exposure, log dilutions of the therapeutic agent were incubated with the cells in complete media. After 5 minutes and media aspiration, 1 ml/well of 1.0 microcurie/ml ^3H-thymidine dispersed in complete media was added. The 24 hour exposure involved incubation of the cells with 1 ml/well of 1.0 microcurie/ml of ^3H-thymidine dispersed in complete media and log dilutions of the therapeutic agent being tested. In both exposure trials, the cells were then incubated overnight at 37°C in a humidified, 5% CO2 environment. The cells were visually scored for viability and cell number. […] Vials were counted on a Beckman LS2800 Liquid Scintillation Counter interfaced with Beckman "Data Capture" software for conversion to a Lotus 1-2-3° file and analysis using Lotus 1-2-30®.

SMILES | therapeutic range (area under the curve of 3H-leucine assay greater than that of 3H-thymidine assay) | protein synthesis inhibition and cytotoxicity at concentrations where significant DNA synthesis inhibition occurs
CN[C@@H]1C[C@H]2O[C@@](C)([C@@H]1OC)n1c3ccccc3c3c4c(c5c6ccccc6n2c5c31)C(=O)NC4 [staurosporin] | showed an available therapeutic range | 
O=[N+]([O-])OCC(CO[N+](=O)[O-])O[N+](=O)[O-] [nitroglycerin] | showed an available therapeutic range | minimal protein synthesis inhibition and cytotoxicity
Cc1ccc(C(=O)Nc2ccc(S(=O)(=O)O)c3cc(S(=O)(=O)O)cc(S(=O)(=O)O)c23)cc1NC(=O)c1cccc(NC(=O)Nc2cccc(C(=O)Nc3cc(C(=O)Nc4ccc(S(=O)(=O)O)c5cc(S(=O)(=O)O)cc(S(=O)(=O)O)c45)ccc3C)c2)c1 [suramin] | showed an available therapeutic range | minimal protein synthesis inhibition and cytotoxicity
